From ChEMBL document CHEMBL1201862, “PubChem BioAssay data set” (2004)
Activity calls are given as the source filed them.

Columns and labels:
Cytochrome P450 2D6 = Cytochrome P450 2D6 (Homo sapiens, UniProt P10635);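 note: CYP2D6 member of a cytochrome P450 panel assay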
Cytochrome P450 2C19 = Cytochrome P450 2C19 (Homo sapiens, UniProt P33261); test: Cytochrome panel assay with activity outcomes. Panel member name: p450-cyp2c19 Compounds with AC50 equal or less than 10 uM are considered active; type: functional; details: read-out: AC50
Cytochrome P450 2C9 = Cytochrome P450 2C9 (Homo sapiens, UniProt P11712)
Large T antigen = Large T antigen (Simian virus 40, UniProt P03070); type: functional, Betapolyomavirus macacae;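 note: Confirmatory-stage PubChem screen for compounds that inhibit SV40 T antigen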
[1] = target: T1, Zinc finger protein mex-5 (Caenorhabditis elegans, UniProt Q9XUB2); test: potency of MEX-5 RNA-binding blockers – biochemical, C. elegans, fluorescence polarization, dose response (AID 1960)
T1 sequence (Q9XUB2 whole entry): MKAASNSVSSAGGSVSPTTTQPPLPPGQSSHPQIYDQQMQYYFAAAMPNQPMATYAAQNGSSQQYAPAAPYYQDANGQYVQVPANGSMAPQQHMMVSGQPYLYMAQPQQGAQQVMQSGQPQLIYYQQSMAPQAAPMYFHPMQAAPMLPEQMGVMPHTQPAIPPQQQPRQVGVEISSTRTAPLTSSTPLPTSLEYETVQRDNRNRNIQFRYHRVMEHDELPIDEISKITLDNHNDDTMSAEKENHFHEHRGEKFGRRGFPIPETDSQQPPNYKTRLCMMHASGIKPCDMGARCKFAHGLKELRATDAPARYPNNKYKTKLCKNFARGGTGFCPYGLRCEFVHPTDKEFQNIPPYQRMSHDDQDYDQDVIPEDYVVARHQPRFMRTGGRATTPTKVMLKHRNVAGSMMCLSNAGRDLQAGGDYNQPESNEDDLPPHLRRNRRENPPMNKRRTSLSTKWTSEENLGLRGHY

[2] = target: T2, RNA-binding protein pos-1 (Caenorhabditis elegans, UniProt G5EF15); test: disruptors of C. elegans POS-1 RNA interaction – biochemical, fluorescence polarization, dose response (AID 1964);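 note: purified POS-1 fused to maltose binding protein made in E. coli; potency of compounds blocking POS-1 binding to fluorescent RNA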
T2 sequence (G5EF15 whole entry): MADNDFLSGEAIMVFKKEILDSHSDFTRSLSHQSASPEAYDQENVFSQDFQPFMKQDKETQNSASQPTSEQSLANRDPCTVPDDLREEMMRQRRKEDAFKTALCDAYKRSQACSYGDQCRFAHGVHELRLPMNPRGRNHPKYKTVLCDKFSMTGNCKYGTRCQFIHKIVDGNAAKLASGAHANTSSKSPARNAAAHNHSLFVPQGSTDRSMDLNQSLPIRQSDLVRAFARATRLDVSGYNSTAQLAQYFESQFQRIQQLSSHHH

Cytochrome P450 3A4 = Cytochrome P450 3A4 (Homo sapiens, UniProt P08684);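 note: CYP3A4 tested as one member of a cytochrome P450 panel screen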
[3] = target: T3, Polyadenylate-binding protein 1 (Homo sapiens, UniProt P11940); test: MLLE domain peptide-binding blockers, IC50 – biochemical, fluorescence polarization, FITC-PAM2 peptide, dose response (AID 602259); type: functional; details: read-out: IC50_Mean
[4] = target: T3, Polyadenylate-binding protein 1; test: MLLE binding blockers, Cy5 peptide tracer – biochemical, fluorescence polarization, Cy5-PAM2 peptide, secondary, miRNA deadenylation inhibitor project, dose response (AID 602260); type: functional; details: read-out: IC50_Mean
[5] = target: T4, Carboxy-terminal domain RNA polymerase II polypeptide A small phosphatase 1 (Homo sapiens, UniProt Q9GZU7); test: CTDSP1 inhibitors, concentration-response, biochemical, absorbance readout, ultra-high-throughput screen actives (AID 540297); type: functional
T4 sequence (Q9GZU7 whole entry): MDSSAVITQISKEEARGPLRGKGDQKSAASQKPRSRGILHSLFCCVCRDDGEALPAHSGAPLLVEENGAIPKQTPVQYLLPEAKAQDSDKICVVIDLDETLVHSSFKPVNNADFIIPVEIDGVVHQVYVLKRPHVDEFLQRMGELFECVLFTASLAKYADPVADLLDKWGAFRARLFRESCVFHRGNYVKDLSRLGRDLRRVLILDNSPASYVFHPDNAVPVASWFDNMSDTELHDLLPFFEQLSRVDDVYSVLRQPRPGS

cells [6] = type: functional, cell-based
cells [7] = type: functional, cell-based; remark: listed apart in the source
[8] = viability of HCT116 lacking mutant beta-catenin – cell-based, human colon tumor, dose response (AID 1045); type: functional;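 note: HCT116 colon tumor cells with beta catenin knocked out; cells exposed to compound for 60 hours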
[9] = viability of PTEN-deleted HCT116 cells – cell-based, HCT116 PTEN knockout, dose response (AID 1047); type: functional;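 note: HCT116 colon tumor cells with PTEN knocked out; cells exposed to compound for 60 hours before readout; potency for loss of cell viability measured by luminescence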
[10] = loss of viability in HepG2 cells – cell-based, CellTiter-Glo, cherry-picked, cytotoxicity control for Shn3 inhibitor project, dose response (AID 624134); type: functional
[11] = reduction of Shn3 3'UTR-driven luciferase in osteoblasts – cell-based, Clone20 osteoblasts, firefly luciferase, cherry-picked, dose response (AID 624132); type: functional;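 note: firefly luciferase luminescence from reporter carrying the Shn3 3'UTR in osteoblasts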
INS1 = test: INS-1E survival protection against cytokine death – cell-based, luminescence, retest, dose response (AID 449756); type: functional; details: Rattus norvegicus;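 note: cell death triggered by IL-1 beta plus TNF-alpha plus IFN-gamma mixture; protective hits raise ATP signal compared with cytokine alone wells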

Sequence of Cytochrome P450 2C9 (P11712 whole entry): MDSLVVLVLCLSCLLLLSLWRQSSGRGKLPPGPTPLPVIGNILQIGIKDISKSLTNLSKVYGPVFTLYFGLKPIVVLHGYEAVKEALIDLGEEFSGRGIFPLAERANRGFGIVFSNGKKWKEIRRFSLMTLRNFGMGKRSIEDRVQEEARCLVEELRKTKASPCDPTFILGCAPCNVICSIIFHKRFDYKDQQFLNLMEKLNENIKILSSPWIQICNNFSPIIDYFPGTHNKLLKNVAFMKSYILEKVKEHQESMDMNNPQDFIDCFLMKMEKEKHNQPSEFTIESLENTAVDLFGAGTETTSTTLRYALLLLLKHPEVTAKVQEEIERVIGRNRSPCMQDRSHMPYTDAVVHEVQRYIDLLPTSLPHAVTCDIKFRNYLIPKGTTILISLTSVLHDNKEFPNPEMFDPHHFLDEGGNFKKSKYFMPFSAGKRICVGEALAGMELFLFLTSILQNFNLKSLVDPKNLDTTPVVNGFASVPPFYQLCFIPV
Sequence of Large T antigen (P03070 whole entry): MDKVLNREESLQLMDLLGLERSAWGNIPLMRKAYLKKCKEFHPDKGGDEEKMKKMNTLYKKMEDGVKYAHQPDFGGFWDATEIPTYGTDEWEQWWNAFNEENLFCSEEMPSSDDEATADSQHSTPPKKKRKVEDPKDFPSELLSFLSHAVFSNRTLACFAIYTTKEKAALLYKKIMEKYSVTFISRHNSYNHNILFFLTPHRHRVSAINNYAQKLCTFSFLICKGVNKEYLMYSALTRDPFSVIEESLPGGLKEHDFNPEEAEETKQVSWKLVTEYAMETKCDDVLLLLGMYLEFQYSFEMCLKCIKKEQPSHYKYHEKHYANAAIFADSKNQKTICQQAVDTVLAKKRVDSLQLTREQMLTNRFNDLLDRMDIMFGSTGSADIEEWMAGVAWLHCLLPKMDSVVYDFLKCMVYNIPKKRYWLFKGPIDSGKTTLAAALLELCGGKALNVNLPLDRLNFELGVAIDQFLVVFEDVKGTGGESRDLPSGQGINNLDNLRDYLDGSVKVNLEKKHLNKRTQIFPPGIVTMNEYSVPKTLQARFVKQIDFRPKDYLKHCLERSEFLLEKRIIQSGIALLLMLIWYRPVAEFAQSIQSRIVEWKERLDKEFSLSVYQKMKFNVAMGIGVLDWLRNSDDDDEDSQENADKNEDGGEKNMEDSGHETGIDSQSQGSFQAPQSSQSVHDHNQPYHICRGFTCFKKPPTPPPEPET
T3 sequence (P11940 whole entry, the tested form may be a part): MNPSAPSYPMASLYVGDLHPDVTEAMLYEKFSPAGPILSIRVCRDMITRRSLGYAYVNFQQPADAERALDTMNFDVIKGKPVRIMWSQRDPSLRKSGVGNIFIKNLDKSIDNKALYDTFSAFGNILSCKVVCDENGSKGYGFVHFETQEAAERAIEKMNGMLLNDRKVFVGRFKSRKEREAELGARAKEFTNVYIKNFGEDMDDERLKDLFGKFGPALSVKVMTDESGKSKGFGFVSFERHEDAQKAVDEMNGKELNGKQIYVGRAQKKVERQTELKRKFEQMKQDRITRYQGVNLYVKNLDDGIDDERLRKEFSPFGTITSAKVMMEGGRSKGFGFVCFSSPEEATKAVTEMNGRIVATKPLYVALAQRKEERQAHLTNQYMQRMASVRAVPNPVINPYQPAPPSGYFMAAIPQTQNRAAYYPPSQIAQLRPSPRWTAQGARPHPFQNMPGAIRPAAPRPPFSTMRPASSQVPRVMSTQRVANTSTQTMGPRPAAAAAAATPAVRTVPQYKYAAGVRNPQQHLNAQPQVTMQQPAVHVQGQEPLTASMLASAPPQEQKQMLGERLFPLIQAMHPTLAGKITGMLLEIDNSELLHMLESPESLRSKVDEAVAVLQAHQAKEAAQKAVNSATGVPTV
Sequence of Cytochrome P450 2D6 (P10635 whole entry): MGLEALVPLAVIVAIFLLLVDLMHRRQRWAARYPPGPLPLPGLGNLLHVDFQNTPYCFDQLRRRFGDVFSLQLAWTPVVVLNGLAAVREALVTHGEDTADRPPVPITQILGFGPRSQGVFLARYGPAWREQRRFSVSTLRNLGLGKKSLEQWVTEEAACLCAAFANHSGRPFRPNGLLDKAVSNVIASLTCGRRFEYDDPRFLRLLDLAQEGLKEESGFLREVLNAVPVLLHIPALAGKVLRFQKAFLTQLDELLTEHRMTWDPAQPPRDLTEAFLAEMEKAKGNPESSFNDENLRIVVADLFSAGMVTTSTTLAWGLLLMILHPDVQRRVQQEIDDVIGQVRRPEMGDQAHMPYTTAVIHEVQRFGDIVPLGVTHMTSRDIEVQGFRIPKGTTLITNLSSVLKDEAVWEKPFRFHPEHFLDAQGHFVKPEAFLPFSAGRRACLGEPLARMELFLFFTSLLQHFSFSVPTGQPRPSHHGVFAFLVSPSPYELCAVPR
Sequence of Cytochrome P450 2C19 (P33261 whole entry): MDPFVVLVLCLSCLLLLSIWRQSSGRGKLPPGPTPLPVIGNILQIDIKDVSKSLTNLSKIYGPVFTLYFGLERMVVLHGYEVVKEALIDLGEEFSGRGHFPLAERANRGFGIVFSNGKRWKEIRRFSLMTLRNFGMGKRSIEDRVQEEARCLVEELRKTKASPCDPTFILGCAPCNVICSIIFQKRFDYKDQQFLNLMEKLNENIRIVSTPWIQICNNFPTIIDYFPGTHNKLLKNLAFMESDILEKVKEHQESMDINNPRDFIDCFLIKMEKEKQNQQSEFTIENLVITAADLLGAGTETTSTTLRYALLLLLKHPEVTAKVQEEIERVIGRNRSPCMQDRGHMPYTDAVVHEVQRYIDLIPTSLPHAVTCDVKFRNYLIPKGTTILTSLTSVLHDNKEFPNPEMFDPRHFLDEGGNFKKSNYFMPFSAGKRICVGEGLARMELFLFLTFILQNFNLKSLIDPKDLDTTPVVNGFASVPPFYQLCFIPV
Sequence of Cytochrome P450 3A4 (P08684 whole entry, the tested form may be a part): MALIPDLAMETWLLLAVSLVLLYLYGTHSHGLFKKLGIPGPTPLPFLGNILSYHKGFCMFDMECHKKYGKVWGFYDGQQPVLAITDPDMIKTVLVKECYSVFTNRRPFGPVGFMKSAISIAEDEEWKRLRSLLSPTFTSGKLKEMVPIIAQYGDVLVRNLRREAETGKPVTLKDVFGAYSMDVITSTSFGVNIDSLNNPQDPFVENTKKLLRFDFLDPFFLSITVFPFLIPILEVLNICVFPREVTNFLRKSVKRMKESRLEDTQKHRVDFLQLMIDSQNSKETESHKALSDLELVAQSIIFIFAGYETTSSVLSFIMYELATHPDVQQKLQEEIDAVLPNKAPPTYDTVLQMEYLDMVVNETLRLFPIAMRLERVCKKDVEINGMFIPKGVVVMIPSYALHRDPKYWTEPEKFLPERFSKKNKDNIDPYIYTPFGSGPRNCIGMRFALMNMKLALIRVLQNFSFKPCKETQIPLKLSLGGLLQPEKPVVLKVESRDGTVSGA

Structure (SMILES): O=C(NCCO)c1ccc(Cl)cc1
- AC50 (Cytochrome P450 2D6): 2 µM (inconclusive)
- AC50 (Cytochrome P450 2C19): 2 µM (inconclusive)
- AC50 (Cytochrome P450 2C9): 5.01 µM (inconclusive)

Structure (SMILES): Cc1ccc(/C=C2\C(=O)NC(=S)N(c3cccc(F)c3)C2=O)o1
- IC50 (Large T antigen): 36.7 µM (active)
- EC50 [1]: 44.6 µM (active)
- EC50 [2]: 63.5 µM (active)

Structure (SMILES): COc1ccc(-n2c(=O)c(-c3cn(C)c4ccccc34)nc3cnc(N4CCNCC4)nc32)cc1
- AC50 (Cytochrome P450 2D6): 20 µM (inconclusive)
- AC50 (Cytochrome P450 2C9): 39.8 µM (inconclusive)
- AC50 (Cytochrome P450 3A4): 20 µM (inconclusive)

Structure (SMILES): CCCc1cc(=O)[nH]c(SCC(=O)Nc2nonc2N)n1
- IC50 [3]: > 66 µM (inactive)
- IC50 [4]: > 66 µM (inactive)

Structure (SMILES): COc1ccc(S(=O)(=O)NCCSC(C)(C)C)c(Cl)c1Cl
- IC50 [5]: 8.61 µM (active)

Structure (SMILES): COc1ccc(C2NN=C(c3ccc(C)cc3)S2)cc1 (centres undefined)
- EC50 (cells [6]): > 350 µM (not active)
- EC50 (cells [7]): 24.6 µM (active)

Structure (SMILES): COc1ccc(NC2=NC(=S)N(c3ccc(C)cc3)C23CCCCC3)cc1
- EC50 [8]: 2.47 µM (active)
- EC50 [9]: 3.42 µM (active)

Structure (SMILES): C=C1C(=O)O[C@H]2[C@H]1[C@H](OC(=O)CC(=O)O[C@@H]1C[C@@H](C)[C@@H]3C=CC(=O)[C@@]3(C)[C@H]3OC(=O)C(=C)[C@H]13)C[C@@H](C)[C@H]1C=CC(=O)[C@]12C
- IC50 (Large T antigen): 52 µM (active)
- AC50 [10]: > 70 µM (inactive)
- AC50 [11]: 1.54 µM (active)

Structure (SMILES): O=C(NC(=S)Nc1ccccc1Br)c1ccco1
- IC50 [3]: > 66 µM (inactive)
- IC50 [4]: > 66 µM (inactive)

Structure (SMILES): CC(=O)c1cccc(NS(=O)(=O)c2ccc(N/C=C\C(=O)c3ccc(F)cc3)cc2)c1
- AC50 (Cytochrome P450 2D6): 8.91 µM (inconclusive)
- AC50 (INS1): 3.74 µM (active)

Structure (SMILES): NS(=O)(=O)c1ccc(/N=N\c2cnc(O)c(O)c2)cc1
- AC50 (Cytochrome P450 2D6): 5.01 µM (inconclusive)
- AC50 (Cytochrome P450 2C19): 6.31 µM (inconclusive)
- AC50 (Cytochrome P450 2C9): 6.31 µM (inconclusive)

Structure (SMILES): Cc1cc(-c2nnnn2-c2cc(Cl)cc(Cl)c2)no1
- EC50 (cells [6]): > 350 µM (not active)
- EC50 (cells [7]): > 350 µM (not active)

Structure (SMILES): O=C(O)c1cccc(S(=O)(=O)Nc2ccc3oc(=O)sc3c2)c1
- IC50 (Large T antigen): 46.3 µM (active)

Structure (SMILES): CCCC1(C)Nc2ccccc2-c2nc3ccccc3n21 (centres undefined)
- AC50 (Cytochrome P450 2D6): 22.4 µM (inconclusive)

Structure (SMILES): COc1ccccc1-c1nc(NCc2cccnc2)c2ccccc2n1
- AC50 (Cytochrome P450 2D6): 20 µM (inconclusive)
- AC50 (Cytochrome P450 2C19): 39.8 µM (inconclusive)

Structure (SMILES): Cc1ccc(C(=O)Nc2c3c(nn2C(C)(C)C)CS(=O)(=O)C3)cc1C
- EC50 (cells [6]): > 350 µM (not active)
- EC50 (cells [7]): > 350 µM (not active)

Structure (SMILES): C=CCOCCN1C(=O)C2C3C=CC(C2C1=O)C1C2C(=O)N(CCOCC=C)C(=O)C2C31 (centres undefined)
- IC50 [5]: 19.9 µM (active)

Structure (SMILES): N#Cc1ccc(CN2CCC3(CC2)CCN(C(=O)c2cc(C(F)(F)F)cc(C(F)(F)F)c2)CC3)cc1
- AC50 (Cytochrome P450 2D6): 39.8 µM (inconclusive)

Structure (SMILES): N#Cc1ccsc1NC(=O)COC(=O)CCS(=O)(=O)c1ccccc1
- IC50 [5]: 8.32 µM (active)

Structure (SMILES): Cc1cc(C)n(CC(=O)NNC(=O)COc2ccc(Br)cc2F)n1
- IC50 [3]: > 66 µM (inactive)
- IC50 [4]: > 66 µM (inactive)
